Assay results taken from patent US10881650B2, “Pharmaceutical compositions” (priority 2007, dated 2021).
Entries after “also recorded” stand apart in the source; their conditions may differ.

How the values were obtained:
[1] = system: postmenopausal women with vaginal atrophy; assay: Vaginal examination: secretions, color, epithelial integrity, surface thickness (ERC-210); format: in vivo; conditions: 2, 4, 8 and 12 weeks
Source text: At the same time intervals of 2, 4, 8 and 12 weeks, the gynecologist or physician in charge of the study at each site performed a vaginal exam to evaluate the degree of severity (none, mild, moderate or severe, analyzed using values of 0, 1, 2 and 3, respectively) for the main signs of vaginal atrophy, namely vaginal secretions, vaginal color, vaginal epithelial integrity and vaginal epithelial surface thickness. […] In fact, the beneficial effects observed by the gynecologist and or physician are almost superimposable to those self-reported by women on their most bothersome symptoms.
Vaginal examination was performed at screening and then at day 1 and at 2, 4, 8 and 12 weeks. Vaginal secretions, vaginal color, vaginal epithelial integrity and vaginal epithelial surface thickness were evaluated according to the following degrees of severity: none, mild, moderate or severe.

endometrium [2] = assay: Endometrial biopsy histology (ERC-210); format: in vivo, postmenopausal women; conditions: 3 months of intravaginal administration
Procedure: Endometrial biopsy was performed at screening and at month 3 at end of study. All biopsies were examined by the same pathologist at the central laboratory (Dr. Robert Dubé, Department of cytology-pathology, Enfant-Jésus Hospital, Quebec City, Canada).

[3] = Bioavailability and metabolism of oral and percutaneous DHEA: serum steroids on 1st and 14th day
Source text: Thirty-six healthy 60-70-year-old postmenopausal women participated in the study after IRB approval and having given their written informed consent. Body weight was within ±20% of normal body weight according to Metropolitan Life Tables.
This study was a randomized open-label trial of 12 subjects per arm. After written informed consent was obtained and women were found eligible, each subject was randomized to receive DHEA by cream, gel or orally. Daily, before breakfast, for 14 days, subjects received, at the research clinic, either 4 g of 10% DHEA gel or 4 g of 10% DHEA cream applied on a total 30 cm×30 cm area of the thighs or two 50 mg capsules of DHEA orally before breakfast.
Blood sampling was performed at 08:00-09:00 h at screening and before application of DHEA, on the first day of dosing, as well as on days 2, 4, 7, 10 and 14. On the 1st and 14th days, blood samples were obtained at 0.5 h, 1 h, 1.5 h, 2 h, 3 h, 4 h, 5 h, 6 h, 7 h, 8 h, 12 h and 24 h following DHEA administration.
DHEA, DHEA-S, androst-5-ene-3β,17β-diol (5-diol), testosterone, androstenedione (4-dione), 17β-estradiol (E2), estrone (E1), estrone sulfate (E1-S), androsterone glucuronide (ADT-G), and androstane-3*,17β-diol glucuronide (3α-diol-G) were measured by gas chromatography/mass spectrometry (DHEA, 5-diol, 4-dione, testosterone, E1 and E2) using electron impact or chemical ionization and by liquid chromatography/tandem mass spectrometry using turboionspray (DHEA-S, E1-S, ADT-G and 3α-diol-G) as described (Labrie, Bélanger et al., 2006; Labrie, Bélanger, et al, 2007b and Swanson et al. 2007).
On days 1 and 14, the area under the curve of the serum concentration of each steroid was measured between 0 h and 24 h (AUC0-24 h). The areas under the curves were calculated by a linear trapezoidal method (model-independent). The relative bioavailability of the DHEA gel, DHEA cream and DHEA capsules was based on the mean difference in the log-transformed AUC values. All calculations were performed with the SAS software (SAS Institute, Cary, N.C., USA).

[4] = Serum levels of DHEA and eleven metabolites after daily intravaginal DHEA suppositories (clinical trial ERC-213); format: in vivo, 40-75 year-old postmenopausal women; conditions: 0.5% DHEA intravaginal
Source text: The primary objective of that study was the evaluation of the systemic bioavailability of DHEA and its metabolites following daily intravaginal application of suppositories at four different DHEA concentrations. This study was a randomized, placebo-controlled and double-blind trial of 10-subjects per arm.

[5] = cited from earlier work
[6] = one week daily intravaginal, mass spectrometry (Labrie, Cusan et al. 2008); cited from earlier work
[7] = system: postmenopausal women with vaginal atrophy; conditions: cited from earlier work
endometrium [8] = conditions: cited from earlier work
[9] = 24 h after 14th daily administration, oral or percutaneous
[10] = daily oral 50 mg (Arlt et al. 2001)

C[C@]12CC[C@H](O)CC1=CC[C@@H]1[C@@H]2CC[C@]2(C)C(=O)CC[C@@H]12 [DHEA, dehydroepiandrosterone]
Signs of vaginal atrophy at vaginal exam [1]: highly statistically significant improvement of all four signs of vaginal atrophy
Effect on endometrial histology (endometrium [2]): no effect on endometrial histology
Change in serum E1, E2 or testosterone AUC0-24 h ([3]; 14th day compared to predosing): no significant change
Change in serum DHEA-S ([3]; 14th day, application of DHEA on the skin): No significant change
Change in serum E1-S [3, 9]: did not change
Change in serum levels of E1 or E2 [3, 9]: no significant change
Change of serum ADT-G or 3α-diol-G ([3]; day 1, up to 24 h, 4 g of 10% DHEA on the skin): no significant change
Change in serum ADT-G ([3]; day 14, application of DHEA on the skin): No significant change
Change in serum 3α-diol-G ([3]; day 14, percutaneous administration): No significant change
Higher level of transformation of DHEA into ADT-G and 3α-diol-G, oral vs percutaneous ([3]; female, human, serum, po): approximately 10 fold
Transformation of DHEA into 4-dione, oral compared to percutaneous ([3]; female, human, serum, po): 2.70-3.76 times
Change in serum E1-S ([3]; first 24 h): did not change significantly
Effect on serum levels of E1 or E2 ([3]; first 24 h, oral or percutaneous route): no statistically significant effect
Serum levels of active estrogens (E1, E2, E1S) and androgens (testo, DHT) [4]: not significantly affected; also recorded: does not increase
Serum DHEA and testosterone levels ([5]; 23 h after last administration, 25 mg oral 6 months): not changed significantly
Effect on serum testosterone or DHT [5, 10]: no significant effect
Increase of DHEA and ADT-G [5, 10]: 80-90%
Androgen metabolites as % of levels found in premenopausal women ([5]; daily oral 100 mg (Labrie, Bélanger et al. 2007)): 74%

C[C@]12CC[C@@H]3c4ccc(O)cc4CC[C@H]3[C@@H]1CC[C@@H]2O [E2, 17β-estradiol]
Increase in serum E2 [6]: 5 fold
Cases with persisting dyspareunia ([7]; 25 μg intravaginally, 12 months (Simunic 2003)): 12.4%
Patients having a pH less than 5.0 ([7]; 12 weeks intravaginal 25 μg (Bachmann 2008)): 51%

CCCCC(=O)O[C@H]1CC[C@H]2[C@@H]3CCc4cc(O)ccc4[C@H]3CC[C@]12C [estradiol valerate]
Increase of Ki labeling (endometrium [8]; 2 mg/day, 3 months (Zang 2007)): 50%

CCCCCCCCCCC(=O)O[C@H]1CC[C@H]2[C@@H]3CCC4=CC(=O)CC[C@]4(C)[C@H]3CC[C@]12C [testosterone undecanoate]
Effect on the endometrium (endometrium [8]; 40 mg every second day (Zang 2007)): no effect on the endometrium

C[C@]12CC[C@H]3[C@@H](CCC4=CC(=O)CC[C@@]43C)[C@@H]1CC[C@@H]2O [testosterone]
Proliferation with simultaneous administration of testosterone (endometrium [8]; with estradiol valerate 2 mg/day (Zang 2007)): 28%
